According to patent US10294202B2, “Pyrrolidinones as herbicides” (FMC Corporation, priority 2013, dated 2019):

How the values were obtained:
pigweed [1] = experiment: Test A pre-/postemergence herbicide test; format: in vivo, Amaranthus retroflexus
Method in brief: (§1)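 Greenhouse pot test with pre- and postemergence application of surfactant-containing solvent formulations. Postemergence plants were 2–10 cm, one- to two-leaf stage. Response scored visually after ~10 days, 0 (no effect) to 100 (complete control).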

wheat = experiment: Test A pre-/postemergence herbicide test; format: in vivo, Triticum aestivum; settings: Postemergence
Method in brief: as §1

galium = experiment: Test C pre-/postemergence herbicide test; format: in vivo, Galium aparine
Method in brief: (§2)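 Greenhouse pots; formulation = non-phytotoxic solvent mix + surfactant. PRE onto seeds in loam:sand; POST at 1–4 leaves (2–18 cm) in peat moss/vermiculite medium. Read-out: visual % control vs untreated, day 13–15.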

corn = experiment: Test C pre-/postemergence herbicide test; format: in vivo, Zea mays
Method in brief: as §2

foxtail, giant = experiment: Test C pre-/postemergence herbicide test; format: in vivo, Setaria faberii
Method in brief: as §2

johnsongrass = experiment: Test C pre-/postemergence herbicide test; format: in vivo, Sorghum halepense
Method in brief: as §2

lambsquarters = experiment: Test C pre-/postemergence herbicide test; format: in vivo, Chenopodium album
Method in brief: as §2

nutsedge, yellow = experiment: Test C pre-/postemergence herbicide test; format: in vivo, Cyperus esculentus
Method in brief: as §2

pigweed [2] = experiment: Test C pre-/postemergence herbicide test; format: in vivo, Amaranthus retroflexus
Method in brief: as §2

oilseed rape = experiment: Test C pre-/postemergence herbicide test; format: in vivo, Brassica napus
Method in brief: as §2

waterhemp = experiment: Test C pre-/postemergence herbicide test; format: in vivo, Amaranthus rudis
Method in brief: as §2

velvetleaf = experiment: Test C pre-/postemergence herbicide test; format: in vivo, Abutilon theophrasti
Method in brief: as §2

[3] = Postemergence, 125 g ai/ha, visual rating on 0 to 100 scale (0 no effect, 100 complete control), approx. 10 days
[4] = Postemergence, 500 g ai/ha, 0 to 100 scale (0 no effect, 100 complete control)
[5] = Preemergence, 125 g ai/ha, 0 to 100 scale where 0 is no effect and 100 is complete control
[6] = preemergence, 500 g ai/ha, 0 to 100 scale, 0 is no effect and 100 is complete control
[7] = 125 g ai/ha, visual rating on 0 to 100 scale (0 no effect, 100 complete control), approx. 10 days
[8] = 500 g ai/ha, 0 to 100 scale (0 no effect, 100 complete control)
[9] = Postemergence, 16 g ai/ha, scale 0 to 100 (0 no effect, 100 complete control)
[10] = Postemergence, 31 g ai/ha, scale 0 to 100 (0 no effect, 100 complete control)
[11] = Postemergence, 62 g ai/ha, scale 0 (no effect) to 100 (complete control)
[12] = Postemergence, 125 g ai/ha, scale 0 to 100 (0 no effect, 100 complete control)
[13] = Preemergence, 31 g ai/ha, scale 0 to 100, 0 is no effect and 100 is complete control
[14] = Preemergence, 62 g ai/ha, scale 0 to 100 (0 no effect, 100 complete control)
[15] = Preemergence, 125 g ai/ha, scale 0 to 100 (0 no effect, 100 complete control)
[16] = Preemergence, 16 g ai/ha, scale 0 to 100
[17] = Postemergence, 250 g ai/ha, scale 0 to 100 (0 no effect, 100 complete control)

CN1CC(c2cccc(C(F)(F)F)c2)C(C(=O)Nc2ccccc2F)C1=O (stereo not shown) [Compound 277]
Plant response rating, Pigweed (pigweed [1]; [3]): 30 | Plant response rating, Pigweed (pigweed [1]; [4]): 30 | Plant response rating, Pigweed (pigweed [1]; [5]): 20 | Plant response rating, Pigweed (pigweed [1]; [6]): 30 | Plant response rating, Wheat (wheat; [7]): 60 | Plant response rating, Wheat (wheat; [8]): 70 | Plant response rating, Galium (galium; [9]): 40 | Plant response rating, Galium (galium; [10]): 45 | Plant response rating, Galium (galium; [11]): 60 | Plant response rating, Galium (galium; [12]): 75 | Galium plant response rating (galium; [13]): 100 | Galium plant response rating (galium; [14]): 90 | Plant response rating, Galium (galium; [15]): 100 | Plant response rating, Galium (galium; [16]): 0 | Plant response rating, Corn (corn; [9]): 0 | Plant response rating, Corn (corn; [10]): 0 | Plant response rating, Corn (corn; [11]): 20 | Plant response rating, Corn (corn; [12]): 10 | Corn plant response rating (corn; [13]): 25 | Corn plant response rating (corn; [14]): 85 | Plant response rating, Corn (corn; [15]): 90 | Plant response rating, Corn (corn; [16]): 0 | Plant response rating, Foxtail, Giant (foxtail, giant; [9]): 0 | Plant response rating, Foxtail, Giant (foxtail, giant; [10]): 10 | Plant response rating, Foxtail, Giant (foxtail, giant; [11]): 85 | Plant response rating, Foxtail, Giant (foxtail, giant; [12]): 85 | Foxtail, Giant plant response rating (foxtail, giant; [13]): 98 | Foxtail, Giant plant response rating (foxtail, giant; [14]): 98 | Plant response rating, Foxtail, Giant (foxtail, giant; [15]): 98 | Plant response rating, Foxtail, Giant (foxtail, giant; [16]): 95 | Plant response rating, Johnsongrass (johnsongrass; [9]): 0 | Plant response rating, Johnsongrass (johnsongrass; [10]): 0 | Plant response rating, Johnsongrass (johnsongrass; [11]): 0 | Plant response rating, Johnsongrass (johnsongrass; [12]): 10 | Johnsongrass plant response rating (johnsongrass; [13]): 40 | Johnsongrass plant response rating (johnsongrass; [14]): 65 | Plant response rating, Johnsongrass (johnsongrass; [15]): 85 | Plant response rating, Johnsongrass (johnsongrass; [16]): 0 | Plant response rating, Lambsquarters (lambsquarters; [9]): 25 | Plant response rating, Lambsquarters (lambsquarters; [10]): 30 | Plant response rating, Lambsquarters (lambsquarters; [11]): 40 | Plant response rating, Lambsquarters (lambsquarters; [12]): 40 | Lambsquarters plant response rating (lambsquarters; [13]): 20 | Lambsquarters plant response rating (lambsquarters; [14]): 75 | Plant response rating, Lambsquarters (lambsquarters; [15]): 80 | Plant response rating, Lambsquarters (lambsquarters; [16]): 0 | Plant response rating, Nutsedge, Yellow (nutsedge, yellow; [9]): 0 | Plant response rating, Nutsedge, Yellow (nutsedge, yellow; [10]): 10 | Plant response rating, Nutsedge, Yellow (nutsedge, yellow; [11]): 0 | Plant response rating, Nutsedge, Yellow (nutsedge, yellow; [12]): 0 | Nutsedge, Yellow plant response rating (nutsedge, yellow; [13]): 0 | Nutsedge, Yellow plant response rating (nutsedge, yellow; [14]): 20 | Plant response rating, Nutsedge, Yellow (nutsedge, yellow; [15]): 20 | Plant response rating, Nutsedge, Yellow (nutsedge, yellow; [16]): 0 | Plant response rating, Pigweed (pigweed [2]; [9]): 5 | Plant response rating, Pigweed (pigweed [2]; [10]): 10 | Plant response rating, Pigweed (pigweed [2]; [11]): 10 | Plant response rating, Pigweed (pigweed [2]; [12]): 30 | Pigweed plant response rating (pigweed [2]; [13]): 10 | Pigweed plant response rating (pigweed [2]; [14]): 35 | Plant response rating, Pigweed (pigweed [2]; [15]): 40 | Plant response rating, Pigweed (pigweed [2]; [16]): 0 | Plant response rating, Oilseed Rape (oilseed rape; [9]): 0 | Plant response rating, Oilseed Rape (oilseed rape; [10]): 0 | Plant response rating, Oilseed Rape (oilseed rape; [11]): 0 | Plant response rating, Oilseed Rape (oilseed rape; [12]): 0 | Oilseed Rape plant response rating (oilseed rape; [13]): 0 | Oilseed Rape plant response rating (oilseed rape; [14]): 0 | Plant response rating, Oilseed Rape (oilseed rape; [15]): 80 | Plant response rating, Oilseed Rape (oilseed rape; [16]): 0 | Plant response rating, Waterhemp (waterhemp; [9]): 5 | Plant response rating, Waterhemp (waterhemp; [10]): 5 | Plant response rating, Waterhemp (waterhemp; [11]): 5 | Plant response rating, Waterhemp (waterhemp; [12]): 5 | Waterhemp plant response rating (waterhemp; [13]): 35 | Waterhemp plant response rating (waterhemp; [14]): 50 | Plant response rating, Waterhemp (waterhemp; [15]): 55 | Plant response rating, Waterhemp (waterhemp; [16]): 0 | Plant response rating, Velvetleaf (velvetleaf; [9]): 0 | Plant response rating, Velvetleaf (velvetleaf; [10]): 0 | Plant response rating, Velvetleaf (velvetleaf; [11]): 0 | Plant response rating, Velvetleaf (velvetleaf; [12]): 15 | Velvetleaf plant response rating (velvetleaf; [13]): 0 | Velvetleaf plant response rating (velvetleaf; [14]): 0 | Plant response rating, Velvetleaf (velvetleaf; [15]): 35 | Plant response rating, Velvetleaf (velvetleaf; [16]): 0

O=C1NCC(c2cc(F)cc(F)c2)C1C(=O)Nc1ccc(F)cc1F (racemic) [Compound 278]
Plant response rating, Pigweed (pigweed [1]; [3]): 0 | Plant response rating, Pigweed (pigweed [1]; [4]): 10 | Plant response rating, Pigweed (pigweed [1]; [5]): 0 | Plant response rating, Pigweed (pigweed [1]; [6]): 0 | Plant response rating, Wheat (wheat; [7]): 0 | Plant response rating, Wheat (wheat; [8]): 0 | Plant response rating, Galium (galium; [10]): 0 | Plant response rating, Galium (galium; [11]): 0 | Plant response rating, Galium (galium; [12]): 5 | Plant response rating, Galium (galium; [17]): 20 | Galium plant response rating (galium; [13]): 0 | Galium plant response rating (galium; [14]): 0 | Plant response rating, Galium (galium; [15]): 0 | Plant response rating (scale of 0 to 100), Galium (galium; Preemergence, 250 g ai/ha): 5 | Plant response rating, Corn (corn; [10]): 0 | Plant response rating, Corn (corn; [11]): 0 | Plant response rating, Corn (corn; [12]): 0 | Plant response rating, Corn (corn; [17]): 0 | Corn plant response rating (corn; [13]): 0 | Corn plant response rating (corn; [14]): 0 | Plant response rating, Corn (corn; [15]): 0 | Plant response rating (scale of 0 to 100), Corn (corn; Preemergence, 250 g ai/ha): 5 | Plant response rating, Foxtail, Giant (foxtail, giant; [10]): 10 | Plant response rating, Foxtail, Giant (foxtail, giant; [11]): 10 | Plant response rating, Foxtail, Giant (foxtail, giant; [12]): 40 | Plant response rating, Foxtail, Giant (foxtail, giant; [17]): 75 | Foxtail, Giant plant response rating (foxtail, giant; [13]): 80 | Foxtail, Giant plant response rating (foxtail, giant; [14]): 90 | Plant response rating, Foxtail, Giant (foxtail, giant; [15]): 95 | Plant response rating (scale of 0 to 100), Foxtail, Giant (foxtail, giant; Preemergence, 250 g ai/ha): 100 | Plant response rating, Johnsongrass (johnsongrass; [10]): 0 | Plant response rating, Johnsongrass (johnsongrass; [11]): 0 | Plant response rating, Johnsongrass (johnsongrass; [12]): 0 | Plant response rating, Johnsongrass (johnsongrass; [17]): 0 | Johnsongrass plant response rating (johnsongrass; [13]): 0 | Johnsongrass plant response rating (johnsongrass; [14]): 0 | Plant response rating, Johnsongrass (johnsongrass; [15]): 0 | Plant response rating (scale of 0 to 100), Johnsongrass (johnsongrass; Preemergence, 250 g ai/ha): 0 | Plant response rating, Lambsquarters (lambsquarters; [10]): 0 | Plant response rating, Lambsquarters (lambsquarters; [11]): 0 | Plant response rating, Lambsquarters (lambsquarters; [12]): 20 | Plant response rating, Lambsquarters (lambsquarters; [17]): 20 | Lambsquarters plant response rating (lambsquarters; [13]): 0 | Lambsquarters plant response rating (lambsquarters; [14]): 0 | Plant response rating, Lambsquarters (lambsquarters; [15]): 0 | Plant response rating (scale of 0 to 100), Lambsquarters (lambsquarters; Preemergence, 250 g ai/ha): 0 | Plant response rating, Nutsedge, Yellow (nutsedge, yellow; [10]): 0 | Plant response rating, Nutsedge, Yellow (nutsedge, yellow; [11]): 0 | Plant response rating, Nutsedge, Yellow (nutsedge, yellow; [12]): 0 | Plant response rating, Nutsedge, Yellow (nutsedge, yellow; [17]): 15 | Nutsedge, Yellow plant response rating (nutsedge, yellow; [13]): 0 | Nutsedge, Yellow plant response rating (nutsedge, yellow; [14]): 0 | Plant response rating, Nutsedge, Yellow (nutsedge, yellow; [15]): 5 | Plant response rating (scale of 0 to 100), Nutsedge, Yellow (nutsedge, yellow; Preemergence, 250 g ai/ha): 5 | Plant response rating, Pigweed (pigweed [2]; [10]): 0 | Plant response rating, Pigweed (pigweed [2]; [11]): 5 | Plant response rating, Pigweed (pigweed [2]; [12]): 15 | Plant response rating, Pigweed (pigweed [2]; [17]): 15 | Pigweed plant response rating (pigweed [2]; [13]): 5 | Pigweed plant response rating (pigweed [2]; [14]): 0 | Plant response rating, Pigweed (pigweed [2]; [15]): 0 | Plant response rating (scale of 0 to 100), Pigweed (pigweed [2]; Preemergence, 250 g ai/ha): 0 | Plant response rating, Oilseed Rape (oilseed rape; [10]): 0 | Plant response rating, Oilseed Rape (oilseed rape; [11]): 0 | Plant response rating, Oilseed Rape (oilseed rape; [12]): 5 | Plant response rating, Oilseed Rape (oilseed rape; [17]): 0 | Oilseed Rape plant response rating (oilseed rape; [13]): 0 | Oilseed Rape plant response rating (oilseed rape; [14]): 0 | Plant response rating, Oilseed Rape (oilseed rape; [15]): 0 | Plant response rating (scale of 0 to 100), Oilseed Rape (oilseed rape; Preemergence, 250 g ai/ha): 5 | Plant response rating, Waterhemp (waterhemp; [10]): 0 | Plant response rating, Waterhemp (waterhemp; [11]): 0 | Plant response rating, Waterhemp (waterhemp; [12]): 5 | Plant response rating, Waterhemp (waterhemp; [17]): 5 | Waterhemp plant response rating (waterhemp; [13]): 0 | Waterhemp plant response rating (waterhemp; [14]): 0 | Plant response rating, Waterhemp (waterhemp; [15]): 0 | Plant response rating (scale of 0 to 100), Waterhemp (waterhemp; Preemergence, 250 g ai/ha): 0 | Plant response rating, Velvetleaf (velvetleaf; [10]): 0 | Plant response rating, Velvetleaf (velvetleaf; [11]): 0 | Plant response rating, Velvetleaf (velvetleaf; [12]): 10 | Plant response rating, Velvetleaf (velvetleaf; [17]): 20 | Velvetleaf plant response rating (velvetleaf; [13]): 0 | Velvetleaf plant response rating (velvetleaf; [14]): 0 | Plant response rating, Velvetleaf (velvetleaf; [15]): 0 | Plant response rating (scale of 0 to 100), Velvetleaf (velvetleaf; Preemergence, 250 g ai/ha): 0
